Assay results taken from publication PMC11222147, “Host defence peptide plectasin targets bacterial cell wall precursor lipid II by a calcium-sensitive supramolecular mechanism” (Nature Microbiology, 2024).
Entries after “also recorded” stand apart in the source; their conditions may differ. Where a SMILES comes first, the peptide text is derived from it. Bridges are numbered along the chain shown (N, C = ends).

What was measured:
S. simulans 22 [1] = assay: MIC assays under standard conditions; format: cell-based, Staphylococcus simulans; conditions: Supplementary Table 1; cation-adjusted MHB, 37 °C, 16–20 h
How it was run: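 Broth microdilution in cation-adjusted MHB, inoculum from OD600 0.5 TSB culture diluted 100-fold, 37 °C with shaking. Streptococci: 5% lysed horse blood, 5% CO2, MIC read visually at 20–24 h; S. simulans read at 16–20 h.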

[2] = Isothermal titration calorimetry with lipid II LUVs; format: binding
Description: About 200 nm large unilamellar vesicles (LUVs) were prepared from 2 mol% lipid II in DOPC by the extrusion technique. ITC measurements were conducted on a low-volume Affinity ITC (TA instruments). All measurements were conducted at 37 °C. Samples were degassed for 10 min before the ITC experiments. The cell was filled with plectasin (in 50 mM HEPES, 150 mM NaCl at pH = 7.2) and titrated with LUVs in the same buffer under constant stirring at 125 r.p.m. The data were analysed using the Nano Analyze software version 3.11.0 (TA Instruments). After baseline correction, the integrated peaks were fitted using an independent binding model. Each measurement was acquired in duplicate.

[3] = HS-AFM oligomerization on supported lipid bilayers doped with lipid II; conditions: DOPC/DOPG (1:1), 1% lipid II, 1 mM Ca^2+, up to 1 µM, n = 3
Description: HS-AFM imaging was performed on a supported lipid bilayer deposited on mica using an amplitude modulation tapping mode HS-AFM from RIBM (Ando type)[11]. The lipid compositions are as stated in the experimental conditions of the corresponding results. Short cantilevers (∼7 μm) with a nominal spring constant of 0.15 N m^−1 were used (USC-F1.2-k0.15, NanoWorld) for all experiments. A minimal imaging force was applied by using a small set-point amplitude, typically 80% of the free amplitude (for 1–2 nm of free amplitude). […] Imaging was started on the lipid bilayer surface in recording buffer. […] All reported experiments were repeated for at least three times for each condition. Image analysis was done using Igor Pro version 6.22 (Wavemetrics) with RIBM script and ImageJ version 1.501 with minimal image corrections (tilt, drift and background corrections). The time stamps on HS-AFM videos are relative to plectasin addition into the liquid chamber. Image acquisition rate varied from 0.5 frames per second to 2 frames per second (see the figure/video legends).

S. pyogenes M3 = assay: MIC assays under standard conditions; format: cell-based, Streptococcus pyogenes; conditions: Supplementary Table 1; cation-adjusted MHB + 5% lysed horse blood, 5% CO2, 20–24 h
Description: (§1) Plectasin and analogues were serially diluted in cation-adjusted Mueller–Hinton broth (MHB) in round-bottom polypropylene 96-well plates (50 µl per well). Selected bacterial strains were grown from glycerol stocks on blood agar plates. Individual colonies were inoculated in TSB and incubated at 37 °C while shaking until OD600 reached 0.5. Bacterial suspensions were then diluted 100 times in cation-adjusted MHB and distributed (50 μl per well) over the microplate containing the diluted plectasin solutions. Plates were covered by a gas-permeable adhesive membrane and incubated at 37 °C while shaking. MICs were determined by visual inspection after 16–20 h (Staphylococcus) or 20–24 h (Streptococcus). For Streptococcus strains, the broth was additionally supplemented with 5% lysed horse blood, and the microplates were incubated under 5% CO2 atmosphere. In the assays, we used the following strains: S. simulans, S. pneumoniae serotype 8, S. pneumoniae ATCC6305 and Streptococcus pyogenes M3.

S. pneumoniae serotype 8 = assay: MIC assays under standard conditions; format: cell-based, Streptococcus pneumoniae; conditions: Supplementary Table 1; cation-adjusted MHB + 5% lysed horse blood, 5% CO2, 20–24 h
Description: as §1

[4] = cited from earlier work
Text: Extended Data Fig. 5 Plectasin binds to bivalent cations with high affinity and its activity is enhanced by calcium ions. Representative ITC traces of the binding of bivalent cations to plectasin in solution and the effect of Mg^2+ on plectasin-lipid II binding. Heat releases and fits of Mg^2+ (A) or Ca^2+ (B) titrated to plectasin in solution. C) Calculated affinities and thermodynamic parameters experiments from (A) and (B), conducted in duplicate. Heat release traces and fits of the titration of Lipid II DOPC vesicles to plectasin without (D) and with (E) the addition of Mg^2+. F,G). Ca^2+ ...

S. simulans 22 [5] = format: cell-based, Staphylococcus simulans; conditions: Ca^2+ variable assay
Description: Cation-depleted MHB was prepared as previously described[18] and supplemented with MgCl2 (0.5 mM) and ZnSO4 (10 µM). Plectasin was serially diluted twofold over a 96-well polypropylene plate. Serial dilutions of Ca^2+ in calcium-depleted medium were subsequently added to the wells containing the plectasin dilution series, followed by addition of bacterial suspensions. MICs were determined by visual inspection after 16–20 h (Staphylococcus). The effect of reduced Ca^2+ levels on S. simulans growth in the absence of plectasin was assessed by monitoring growth at 37 °C by OD600 over 18 h (Supplementary Fig. 4).

CC[C@H](C)[C@@H]1NC(=O)[C@H](CO)NC(=O)[C@H](CCCCN)NC(=O)[C@@H]2CSSC[C@@H](C(=O)N[C@@H](Cc3ccc(O)cc3)C(=O)O)NC(=O)[C@H](CCCCN)NC(=O)[C@@H]3CSSC[C@H](NC(=O)[C@H](CCC(N)=O)NC(=O)[C@H](CCSC)NC(=O)[C@H](CC(=O)O)NC(=O)[C@H](CC(=O)O)NC(=O)[C@H](CCC(=O)O)NC(=O)[C@H](CC(=O)O)NC(=O)[C@H](Cc4c[nH]c5ccccc45)NC(=O)[C@@H]4CCCN4C(=O)CNC(=O)[C@H](CC(N)=O)NC(=O)[C@@H](NC(=O)CNC(=O)[C@H](Cc4ccccc4)NC(=O)CN)CSSC[C@H](NC(=O)[C@H](Cc4ccc(O)cc4)NC(=O)CNC(=O)CNC(=O)[C@H](CCCCN)NC(=O)[C@H](Cc4ccc(O)cc4)NC(=O)CNC(=O)[C@H](CCCCN)NC1=O)C(=O)N[C@@H](C)C(=O)N[C@@H](CCCCN)C(=O)NCC(=O)NCC(=O)N[C@@H](Cc1ccccc1)C(=O)N[C@@H](C(C)C)C(=O)N3)C(=O)N[C@@H](C)C(=O)N[C@@H](CC(N)=O)C(=O)N[C@@H](Cc1c[nH]cn1)C(=O)N2 [H16A] (H-GFGCNGPWDEDDMQCANHCKSIKGYKGGYCAKGGFVCKCY-OH; disulfide 4-30, 15-37, 19-39 (inferred); N-terminus and C-terminus assumed)
Minimum inhibitory concentration, S. simulans (S. simulans 22 [1]): > 50 µg/mL
loss in lipid II binding affinity (ITC) ([2]; mutant vs plectasin): > 10 fold
oligomerization in HS-AFM (in words) [3]: oligomerization was not observed; also recorded: No plectasin oligomerization is observed

CSCC[C@@H]1NC(=O)[C@H](CC(=O)O)NC(=O)[C@H](CC(=O)O)NC(=O)[C@H](CCC(=O)O)NC(=O)[C@H](CC(=O)O)NC(=O)[C@H](Cc2c[nH]c3ccccc23)NC(=O)[C@@H]2CCCN2C(=O)CNC(=O)[C@H](CC(N)=O)NC(=O)[C@@H](NC(=O)CNC(=O)[C@H](Cc2ccccc2)NC(=O)CN)CSSC[C@@H]2NC(=O)[C@H](Cc3ccc(O)cc3)NC(=O)CNC(=O)CNC(=O)[C@H](CCCCN)NC(=O)[C@H](Cc3ccc(O)cc3)NC(=O)CNC(=O)[C@H](CCCCN)NC(=O)[C@H](C)NC(=O)[C@H](CO)NC(=O)[C@H](CCCCN)NC(=O)[C@@H]3CSSC[C@@H](C(=O)N[C@@H](Cc4ccc(O)cc4)C(=O)O)NC(=O)[C@H](CCCCN)NC(=O)[C@H](CSSC[C@H](NC(=O)[C@H](CCC(N)=O)NC1=O)C(=O)N[C@@H](Cc1c[nH]cn1)C(=O)N[C@@H](CC(N)=O)C(=O)N[C@@H](Cc1c[nH]cn1)C(=O)N3)NC(=O)[C@H](C(C)C)NC(=O)[C@H](Cc1ccccc1)NC(=O)CNC(=O)CNC(=O)[C@H](CCCCN)NC(=O)[C@H](C)NC2=O [I22A] (H-GFGCNGPWDEDDMQCHNHCKSAKGYKGGYCAKGGFVCKCY-OH; disulfide 4-30, 15-37, 19-39 (inferred); N-terminus and C-terminus assumed)
lipid II binding by ITC (in words) ([2]; LUVs 2 mol% lipid II in DOPC, 37 °C): do not bind lipid II
Minimum inhibitory concentration, S. pyogenes M3 (S. pyogenes M3): > 25 µg/mL
Minimum inhibitory concentration, S. pneumoniae serotype 8 (S. pneumoniae serotype 8): > 25 µg/mL

daptomycin [reference compound]
increase in MIC if Ca^2+ is replaced by Mg^2+ [4]: > 100
improvement of antimicrobial activity with increasing Ca^2+ concentration (S. simulans 22 [5]): > 60 fold
